Laboratory results: patent US12129490B2, “Methods for generating hepatocytes and cholangiocytes from pluripotent stem cells” (UNIVERSITY HEALTH NETWORK, priority 2018, dated 2024)

Tests used:
[1] = system: H9- and iPSC (38-2)-derived hepatic aggregates
Protocol: HPSCs were maintained on irradiated mouse embryonic feeder cells in hESC media consisting of DEME/F12 (50:50; Gibco) supplemented with 20% Knock-out serum replacement (KSR) as described previously^44. Prior to the generation of embryoid bodies (EBs), hESCs were passaged onto Matrigel™-coated plates for 1 day to deplete the population of feeder cells. […] At day 1, the EBs were harvested and re-cultured in induction medium A that consisted of StemPRO-34® supplemented with glutamine (2 mM), ascorbic acid ([…]; Sigma), MTG ([…]; Sigma), basic fibroblast growth factor (bFGF; 2.5 ng/ml), activin A (100 ng/ml), Wnt3a (25 ng/ml) and BMP4 (0.25 ng/ml) for 3 days. On day 4, the EBs were harvested and re-cultured in StemPRO-34® supplemented with bFGF (10 ng/ml), activin A (100 ng/ml), Wnt3a (25 ng/ml) and BMP4 (0.25 ng/ml) (medium B). EBs were harvested at day 6, dissociated to single cells and the cells cultured for 2 days on Matrigel™-coated 12 well plates at a concentration of 4×10^5 cells in media B without Wnt3A and with activin A at a concentration of 50 ng/ml. At day 8, medium B was replaced with hepatic specification media that consisted of Iscove's Modified Dulbecco's Medium (IMDM) supplement with 1% vol/vol B27 supplement (Invitrogen: A11576SA), ascorbic acid, MTG, FGF10 (50 ng/ml) (from day 8 to day 10), bFGF (20 ng/ml) (from day 10 to day 14), and BMP4 (50 ng/ml). Media was changed every 2 days from day 8 to day 14. To promote maturation of HES2-derived hepatic cells, they were cultured in maturation media A for 12 days. Maturation media A consisted of IMDM with 1% vol/vol B27 supplement, ascorbic acid, Glutamine, MTG, Hepatocyte growth factor (HGF) (20 ng/ml), Dexamethasone Dex) (40 ng/ml) and Oncostatin M (20 ng/ml). Aggregates were generated from the population at day 26 of culture. To generate aggregates the cells were dissociated with collagenase and TrypleLE and then cultured in six well ultra-low cluster dishes at a concentration of 6×10^5 cells per well in maturation medium A supplemented with Rho-kinase inhibitor and 0.1% BSA. Aggregates were maintained under these conditions until day 32, with media changes every 3 days. […] Media was changed every 3 days. To generate hepatocyte like cells from H9, H1 and IPS cells, the following changes were made to the hepatic specification media. […] All cytokines were human and purchased from R&D Systems, unless stated otherwise. EB and monolayer cultures were maintained in a 5% CO2, 5% O2, 90% N2 environment. Aggregation cultures were maintained in a 5% CO2 ambient air environment.
Total RNA was prepared with RNAqueous® Micro Kit (Ambion) and treated with RNase-free DNase (Ambion). 500 ng to 1 μg RNA was reverse transcribed into cDNA using random hexamers and Oligo(dT) with Superscript® III Reverse Transcriptase (Invitrogen). qPCR was performed on a MasterCycler® ep realplex (Eppendorf) using A QuentiFast SYBR Green PCR Kit (Quiagen) as described previously^45. Expression levels were normalized to the housekeeping gene TATA box binding protein (TBP). […] Total human adult and fetal liver RNA was purchased from Clontech. Two primary hepatocyte RNA samples were provided by Dr Stephen C. […] Two primary hepatocyte samples were cultured for two day and were harvested.

hESC-derived cells = experiment: Albumin secretion, ELISA; type: cell-based, human
Protocol: The levels of albumin (ALB) secreted by hESC-derived monolayer and aggregate populations, as well as by HepG2 cells, Huh7 cells and cryopreserved hepatocytes (PH, lot OSI) was detected using an ELISA assay. […] Only low levels were detected in HepG2, Huh7 and PH cells. By contrast, the capacity to take up indocyanine green (ICG), a characteristic of adult hepatocytes (Stieger et al., 2012) was enhanced by cAMP signaling. ICG uptake and release by cAMP-treated and non-treated was measured in day 44 aggregates.

CYP1A2 = target: T1, CYP1A2 (Homo sapiens, UniProt P05177); experiment: CYP1A2 activity, phenacetin metabolism by HPLC; conditions: 8-Br-cAMP-treated cells versus primary cultured hepatocytes
T1 sequence (P05177 1-516): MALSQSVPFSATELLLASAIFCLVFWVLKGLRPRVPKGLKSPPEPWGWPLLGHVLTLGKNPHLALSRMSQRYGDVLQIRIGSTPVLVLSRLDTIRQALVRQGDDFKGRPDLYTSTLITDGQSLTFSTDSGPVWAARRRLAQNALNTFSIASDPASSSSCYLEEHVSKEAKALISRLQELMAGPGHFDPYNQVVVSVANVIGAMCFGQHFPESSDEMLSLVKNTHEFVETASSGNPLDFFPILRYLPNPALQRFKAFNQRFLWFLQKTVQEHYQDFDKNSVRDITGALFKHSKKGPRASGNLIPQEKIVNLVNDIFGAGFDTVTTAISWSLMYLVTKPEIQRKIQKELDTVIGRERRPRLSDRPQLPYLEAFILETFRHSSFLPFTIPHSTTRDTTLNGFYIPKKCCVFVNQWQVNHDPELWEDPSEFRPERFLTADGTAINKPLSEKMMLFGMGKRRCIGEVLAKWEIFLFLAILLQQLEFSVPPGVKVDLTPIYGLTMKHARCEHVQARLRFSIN

hepatic aggregates = experiment: Indocyanine green (ICG) uptake of hepatic aggregates; type: cell-based, human; conditions: day 44 aggregates
Protocol: The indocyanine green (ICG, Sigma) solution was added to the cells at final concentration of 1 mg/ml ICG in HCM (Lonza). The cells were incubated at 37° C. for 1 hour, washed 3 times with PBS, and then examined with an inverted Microscope (Leica).

expression of CYP1A2 [1]: 100 fold
expression of CYP2B6 [1]: 10 fold
expression of CYP3A4 [1]: 16 fold
expression of CYP3A4, CYP1A2, CYP2B6 and UGT1A1 [1]: as high as those in primary hepatocytes
O-deethylation of phenacetin (CYP1A2 activity) (CYP1A2): as high as primary cultured hepatocytes
Compound: Nc1ncnc2c1nc(Br)n2[C@@H]1O[C@@H]2COP(=O)(O)O[C@H]2[C@H]1O [8-Br-cAMP, 8-bromoadenosine-3′5″-cyclic monophosphate]
expression of UGT1A1 ([1]; H9-derived aggregates): 16 fold
albumin secretion (hESC-derived cells): not impacted
ICG staining of aggregates (hepatic aggregates): almost all treated aggregates stained with ICG
